This passage reports IC50 results from article PMC3466269, “A Comprehensive Strategy to Discover Inhibitors of the Translesion Synthesis DNA Polymerase κ” (PLoS ONE, 2012).

One assay has as its target T1, Human pol ι (Homo sapiens, UniProt Q9UNA4).
T1 construct: purchased Enzymax Inc. (Lexington, KY)
T1 sequence (Q9UNA4 1-740): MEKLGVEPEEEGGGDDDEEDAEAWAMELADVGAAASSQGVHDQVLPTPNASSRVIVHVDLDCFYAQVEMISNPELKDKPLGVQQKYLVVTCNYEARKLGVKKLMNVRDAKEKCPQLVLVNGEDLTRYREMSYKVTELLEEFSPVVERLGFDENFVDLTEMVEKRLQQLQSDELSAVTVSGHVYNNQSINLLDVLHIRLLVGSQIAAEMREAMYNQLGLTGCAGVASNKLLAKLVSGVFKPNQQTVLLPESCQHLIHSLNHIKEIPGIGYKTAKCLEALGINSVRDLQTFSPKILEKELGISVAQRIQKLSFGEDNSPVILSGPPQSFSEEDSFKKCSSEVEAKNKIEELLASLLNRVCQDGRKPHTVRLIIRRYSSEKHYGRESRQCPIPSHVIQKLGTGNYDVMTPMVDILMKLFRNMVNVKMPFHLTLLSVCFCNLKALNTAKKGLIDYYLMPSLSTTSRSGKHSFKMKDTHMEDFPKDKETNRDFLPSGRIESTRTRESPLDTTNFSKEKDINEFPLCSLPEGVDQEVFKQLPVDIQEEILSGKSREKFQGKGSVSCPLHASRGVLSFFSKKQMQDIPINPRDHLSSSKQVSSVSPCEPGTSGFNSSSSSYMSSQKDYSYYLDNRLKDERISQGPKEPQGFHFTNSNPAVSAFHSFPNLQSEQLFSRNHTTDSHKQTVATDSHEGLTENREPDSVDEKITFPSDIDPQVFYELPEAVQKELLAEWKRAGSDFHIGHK
Description: Radioactive gel-based primer extension assay on non-damaged DNA, pol ι. It counts as biochemical. The following applies: average ± standard error, three experiments. As to the method:
The reactions with pol κ, pol η, and pol ι were carried out in the buffers containing 25 mM Tris-HCl, pH 7.5, 8 mM MgCl2, 10% glycerol, 100 µg/mL bovine serum albumin, and 5 mM DTT. Buffers for pol δ reactions contained 40 mM Hepes-KOH, pH 6.8, 10% glycerol, 200 µg/mL bovine serum albumin, 1 mM DTT, and 8 mM MgCl2. Final concentration of pol κ, pol η, pol ι, or pol δ in the reaction was 0.25 nM, 1 nM, 2.5 nM, or 4 nM, respectively. In this assay, a polymerase was preincubated with the compound for 15 min at room temperature. Primer extensions were then initiated by the addition of DNA substrate at final concentration of 5 nM and carried out for 30 min at room temperature in the presence of 100 µM dCTP and dGTP. The reactions were terminated by the addition of an equal volume of a dye solution containing 95% (v/v) formamide, 10 mM EDTA, 0.03% (w/v) xylene cyanol, and 0.03% (w/v) bromphenol blue. Reaction products were separated through a 15% acrylamide gel containing 8 M urea and visualized with a PhosphorImager screen. The ratio of extended primer to the total amount of primer was measured using ImageQuant 5.2 software to calculate the percentage of primer extended. IC50 values were determined by fitting the data to variable slope four-parameter equations using GraphPad Prism 5.

Assay [1] addresses T2, Human pol κ (residues 19–526) (Homo sapiens, UniProt Q9UBT6).
T2 construct: Human pol κ (residues 19–526) was purified as previously reported; made in house
T2 sequence (Q9UBT6 19-526): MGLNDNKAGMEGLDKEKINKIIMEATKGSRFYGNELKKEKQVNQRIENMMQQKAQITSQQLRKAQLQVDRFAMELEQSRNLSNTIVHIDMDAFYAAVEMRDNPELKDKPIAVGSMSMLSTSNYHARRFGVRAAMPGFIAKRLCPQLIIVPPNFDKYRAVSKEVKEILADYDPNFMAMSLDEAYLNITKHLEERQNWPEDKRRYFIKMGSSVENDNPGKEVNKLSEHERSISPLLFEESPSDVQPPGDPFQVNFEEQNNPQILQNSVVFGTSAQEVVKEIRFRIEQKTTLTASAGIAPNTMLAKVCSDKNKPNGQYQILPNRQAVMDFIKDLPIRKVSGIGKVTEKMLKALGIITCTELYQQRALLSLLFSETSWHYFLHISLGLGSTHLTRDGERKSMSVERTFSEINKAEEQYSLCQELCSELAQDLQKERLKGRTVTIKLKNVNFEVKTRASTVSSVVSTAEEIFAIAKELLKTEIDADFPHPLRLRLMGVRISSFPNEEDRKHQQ
Description: qHTS fluorescence-based DNA strand displacement assay. It counts as biochemical. The following applies: fluorescence strand displacement, 10 nM pol κ, 50 nM substrate, 100 µM dTTP; read-out: qHTS: IC50. As to the method: The substrate used in qHTS was made by the annealing of unlabeled oligodeoxynucleotide primer (5′-TCACCCTCGTACGACTC-3′) and TAMRA-labeled reporter strand (5′-TTTTTTTTTTGC-6-TAMRA-3′) to oligodeoxynucleotide template labeled with BHQ-2 (5′-BHQ-2-[…]-3′) as originally described by Dorjsuren et al.. The annealing mixture of unlabeled primer, TAMRA-labeled reporter, and BHQ-2-labeled template in buffer containing 50 mM Tris-HCl, pH 8.0, 100 mM NaCl, and 5 mM MgCl2 was heated at 95°C for 5 min and allowed to cool gradually to room temperature. The substrate was then stored at −20°C as 50 µM stock.
qHTS was performed in 50 mM Tris-HCI, pH 8.0, 40 mM NaCl, 1 mM MgCl2, 0.01% Tween-20, 2 mM DTT, and 100 µM dTTP. 3 µL of reagents (buffer as negative control and pol κ in the remaining plate at 10 nM final concentration) were dispensed by Flying Reagent Dispenser™ (FRD) (Beckman Coulter, Inc., Fullerton, CA) into a 1,536-well plate. Compounds were delivered as 23 nL in DMSO solution via pintool transfer; vehicle-only control consisted of 23 nL DMSO. The plate was incubated for 15 min at room temperature, and then 1 µL of substrate (50 nM final concentration) was added to initiate the reaction. The plate was immediately transferred into ViewLux reader for kinetic fluorescence data collection.
To lay the foundation for the methodologies to discover and characterize inhibitors of pol κ, we used a fluorescent reporter strand displacement assay (Figure 1 and [27]). The library of bioactive small molecules was tested as seven-point dilution series, with the final concentrations ranging from 2.9 nM to 57 µM.
For orientation: In qHTS, concentration-response curves come from the screen itself.

A word on the IC50: it is the concentration that gives 50% inhibition.

Take `CCOc1nc2cccc(C(=O)OC(C)OC(=O)OC3CCCCC3)c2n1Cc1ccc(-c2ccccc2-c2nnn[nH]2)cc1` (centres unmarked) [candesartan cilexetil, Candesartan cilexetil]: the figures for the IC50 (at Human pol ι; in assay [1]) were 6.2 ± 0.6 µM and 32 µM, respectively.
